# Entries after “also recorded” stand apart in the source; their conditions may differ.
# Legend:
# [1] = test system: peripheral blood mononuclear cell (PBMC); test: Lymphoproliferation in dogs (whole blood cultures); assay type: in vivo, dog
# Method: Lyniphoproliferation. The proliferation response of peripheral blood mononuclear cell (PBMC) to PHA (2 and 10 mg/L final concentration), concanavalin A (Con A; 1 and 5 mg/L), and pokeweed mitogen (PWM; 0.25 and 1.25 mg/L) was assessed on week 0, 6, 12 and 16 using whole blood cultures (Chew et al., 2000). Whole blood was cultured in order to mimic in vivo conditions.
# [2] = Plasma astaxanthin in cats fed astaxanthin diets; assay type: in vivo, cat
# Method: (§1) Female domestic short hair cats (8 to 9 months old; 3.2±0.04 kg body weight; Liberty Farms, Waverly, N.Y.) were randomly assigned (n=14/diet) to be fed 0, 1, 5, or 10 mg astaxanthin (109 g astaxanthin/kg oleoresin concentrate from Haematococcus pluvialis, astraZanthin™, La Haye Laboratories, Redmond, Wash.) daily (based on an average intake of 90 g food/day) for 12 weeks. Astaxanthin was incorporated into a commercial basal diet (The Iams Co., Lewisburg, Ohio.) and fed ad libitum. The diet composition was as follows (g/kg): 63.1 moisture, 350.6 protein, 62.7 ash, 213.6 fat, 10.0 Ca, 7.6 P, and 7.1 crude fiber, 21,707 kJ/kg gross energy; the n-6:n-3 fatty acid ratio was 9.9. Cats were housed in a temperature (20 to 22° C.) and light-controlled (14 hour light) facility and body weights were determined at weeks 0, 4, 8 and 12. Blood was collected at week 0 and 8 to assess immune function. To assess the dietary effects of astaxanthin on immune response after an antigenic challenge, all cats were vaccinated (Felocell™, Pfizer, N.Y.) two times (weeks 8 and 10) and blood was collected at week 12 to measure the same immune parameters.
# [3] = test system: Canine thyroid adenocarcinoma cells (target cells); test: Natural killer cell cytotoxic activity in dogs; assay type: in vivo, dog
# Method: Natural killer cell cytotoxic activity. Canine thyroid adenocarcinoma cells (target cells) were resuspended to 2×10^5 cells/mL in Dulbecco's Modified Eagles Medium (Sigma, St. Louis, Mo.) containing 100 mL/L fetal bovine serum, 100 U/mL penicillin, and […] streptomycin sulfate. Ficol-separated PBMC (effector cells) were resuspended to 1×10^6 and 2×10^6 cells/mL and 100 microliters added to the target cells in 96-well flat-bottom plates to provide effector:taiget ratios of 5:1 and 10:1. After incubating for 8 h, 20 microliters (5 g/L) of MTT were added and incubated for 4 hours. The supernatant was removed and the formazan resuspended in 100 microliters isopropanol. Optical density was measured at 550 nm and the percent of specific cytotoxicity calculated as follows:
# % Specific cytotoxicity=1−(ODeffector+target−ODeffector)/ODtarget×100.
# IgG and IgM = test: Plasma IgG and IgM in cats (ELISA); assay type: in vivo, cat
# Method: as §1
# IgG and IgM. Plasma concentrations of IgG (sheep anti-IgG; sensitivity=16 μg/L) and IgM (goat anti-IgM; sensitivity=31 μg/L) were analyzed by ELISA using a commercial kit (Bethyl Lab., Inc., Montgomery, Tex.).
# [4] = test system: total T, Th, Tc, MHC II and CD21 lymphocyte populations; test: Leukocyte subsets in cats by flow cytometry; assay type: in vivo, cat
# From the text: Leukocyte subset. Blood collected at week 0, 8 and 12 was phenotyped for populations of CD3 (total T), CD4 (Th), CD8 (Tc), MHC II (activated lymphocytes), and CD21 (mature B cells) by flow cytometry (FACSCalibur, Becton Dickenson, San Jose, Calif.) as previously described (Chew et al., 2000).
# [5] = compared with other antioxidants (Naguib, 2000; Miki, 1991); cited from earlier work
# [6] = test system: mammary and bladder tumor; details: cited from earlier work
# [7] = Body weight of cats fed astaxanthin; assay type: in vivo, cat
# Method: as §1
# [8] = test system: humoral and cell-mediated immune responses; details: cited from earlier work
# [9] = Plasma astaxanthin in dogs fed astaxanthin diets; assay type: in vivo, dog
# Method: Female Beagle dogs (9 to 10 mo old; 8.2±0.2 kg body weight; Covance Research Products Inc., Kalamazoo, Mich.) were randomly assigned (n=14/treatment) to be fed 0, 10, 20, or 40 mg astaxanthin (109 g astaxanthin/kg oleoresin concentrate from Haematococcus pluvialis, astraZanthin™, La Haye Laboratories, Redmond, Wash.) daily for 16 weeks. Astaxanthin was incorporated into a commercial basal diet (The Iams Co., Lewisburg, Ohio.) and fed two times daily (200 g food/d). The diet composition was as follows (g/kg): 85.3 moisture, 275.8 protein, 60.7 ash, 115.0 fat, 9.9 Ca, 9.3 P, 21.3 crude fiber, and 18,914 kJ/kg gross energy; the n-6:n-3 fatty acid ratio was 7.9. Dogs were housed in 2×3 m pens (2 dogs/pen) in a temperature (20 to 22° C.) and light-(14 hour light) controlled facility. Body weight was recorded on week 0, 4, 8, and 16. Blood was collected on wk 0, 6 and 12 for assessing immune function. All dogs were vaccinated (Vanguard 5™, Smithkline Beacham, West Chester, Pa.) twice on week 12 and 14 and blood again taken on week 16 to assess post-vaccination immune responses.
# [10] = post-vaccination week 12, 10 mg
smiles,measurement,setting,value
"CC1=C(/C=C/C(C)=C/C=C/C(C)=C/C=C/C=C(C)/C=C/C=C(C)/C=C/C2=C(C)C(=O)C(O)CC2(C)C)C(C)(C)CC(O)C1=O (stereo not drawn) [astaxanthin, 3,3′-dihydroxy-beta, beta-carotene-4,4′-dione]",con A-induced PBMC proliferation,"[1]; 20 mg, week 12",higher con A-induced PBMC proliferation than un-supplemented dogs; also recorded: highest blastogenic response
same,PHA-stimulated PBMC proliferation,[1]; all time periods,did not influence
same,PWM-stimulated PBMC proliferation,[1]; all time periods,did not influence
same,plasma astaxanthin concentrations,[2]; at week 8,rapid initial increase
same,plasma astaxanthin concentrations,"[2]; cats fed 1, 5 or 10 mg daily",generally a dose-dependent increase; also recorded: dose-related increase in plasma astaxanthin
same,plasma astaxanthin,[2]; week 8 through week 12,"continued to increase, albeit more gradually"
same,NK cell activity,[3]; week 6,dose-dependent increase in NK cell activity
same,NK cell activity,"[3]; week 6, dogs fed 30 mg",significantly higher than control
same,NK cell cytotoxic activity,"[3]; week 12, 20 mg",higher NK cell cytotoxic activity than control
same,NK cell cytotoxic activity,"[3]; week 16 (trend as week 12: 20 mg higher, 40 mg not)",same trend continued through week 16
same,plasma IgG concentration,"IgG and IgM; post-vaccination week 12, 5 mg",only those fed 5 mg astaxanthin were significant
same,plasma IgM concentration,"IgG and IgM; post-vaccination week 12, 5 mg",only those fed 5 mg astaxanthin were significant
same,plasma IgG concentration,IgG and IgM; [10],still numerically higher
same,plasma IgM concentration,IgG and IgM; [10],still numerically higher
same,plasma IgG concentration,"IgG and IgM; week 8, 10 mg",higher
same,plasma IgM concentration,"IgG and IgM; week 8, 10 mg",higher
same,CD8+ T cytotoxic (Tc) cells averaged,[4]; average over diets,4.7±0.4
same,MHC class II population averaged,"[4]; average over diets, in % (unit assumed)",94.1±1.0
same,population of CD4+ T helper (Th) cells,"[4]; by weeks 8 and 12, generally dose-dependent",increased the populations; also recorded: increase in the populations of total T and Th lymphocytes
same,MHC class II population,[4]; in vivo,did not influence
same,distribution of CD8+ T cytotoxic (Tc) cells,[4]; in vivo,did not influence
same,population of B cells,[4]; in vivo,decreased the population of B cells; also recorded: decrease in the B cell population
same,antioxidant activity against certain reactive oxygen species,[5],"higher than that of beta-carotene, canthaxanthin, lutein, alpha-tocopherol, tunaxanthin, and zeaxanthin"
same,mammary tumor growth,"[6]; rodents (Chew et al., 1999a)",inhibited
same,bladder tumor growth,"[6]; rodents (Tanaka et al., 1994)",inhibited
same,body weight between treatments,"[7]; cats fed 0, 1, 5 or 10 mg daily, 12 weeks",not significantly different between treatment
same,body weight averaged,"[7]; week 12, average over all diets",3.22 ± 0.06 kg
same,cell-mediated immune response,"[8]; rodents (Chew et al., 1999b)",enhanced
same,T cell-mediated antibody production,"[8]; rodents (Jyonouchi et al., 1994)",increased T cell-mediated antibody production
same,humoral immune response,"[8]; rodents (Jyonouchi et al., 1995)",enhanced
same,time at which maximal blood concentrations were observed,[9]; all supplemented dogs,≤ 6 wk
same,plasma astaxanthin concentration,"[9]; supplemented dogs, through week 16",increased in a dose-dependent manner

# Source: patent publication US20040151761A1, “Methods and compositions utilizing astaxanthin” (priority 2003, published 2004)
